The values below come from patent EP4696691A1, “TRICYCLIC COMPOUND, AND PREPARATION METHOD THEREFOR AND USE THEREOF” (Shanghai Huilun Pharmaceutical Co., Ltd., priority 2023, dated 2024).

Where two headings read alike, the source gives them in different places.

Data set [1] relates to LPS induced IL-6 release in human PBMC cells. Put plainly: Inhibition of LPS induced IL-6 release in human PBMC cells (IL-6 HTRF assay). As to conditions: 2 h compound pre-incubation, LPS 5 ng/mL for 4 h, IL-6 in supernatant. The class given is cell-based. As to the method:
I. Recovery and seeding of PBMC, and treatment of compounds (human PBMC cells were purchased from Oricell, item number: Fpb003F)
• 1. Preparation of compounds Sample dilutions of a series of concentrations were obtained by dilution in DMSO using Bravo, and then 80 nL was transferred into a cell plate using ECHO. The final concentration of DMSO in the cell culture medium is 0.1%. • 2. Frozen cells were quickly thawed in a 37°C water bath and stirred continuously. • 3. 25 mL of fresh preheated culture medium was added into a 50 mL centrifuge tube, and then the cells were added dropwise. Then the cells were centrifuged at 2,000 rpm for 10 min. • 4. […] The total number of cells required was calculated based on cell concentration to perform the assay. 7×10e4 cells were added per well (70 µL). • 6. The cell plate was placed and incubated in a 5% CO2 incubator at 37°C for 2 h.
• 1. LPS: A stock solution (1 mg/mL) was diluted in dH2O, aliquoted, and stored at -80°C. • 2. 8-fold LPS was added per well (10 µl/well) (with a final concentration of 5 ng/mL). The cells were incubated in a 5% CO2 incubator at 37°C for 4 h. • 3. 70 µl of supernatant was collected per well using Bravo, and then IL-6 HTRF assay was performed. The supernatant may be stored at -80°C.
1. Preparation of standards and sample dilutions. 2. 16 µL of each sample was taken using Bravo and added to wells. Then 16 µL of each standard was taken and added to corresponding wells. 3.4 µL of a premixed IL6 antibody working solution was added to each of all wells. 4. The cell plate was sealed and incubated at room temperature for 2 h. 5.
(In general: In TR-FRET formats the signal depends on donor and acceptor labels being close together.)

A short description of data set [2]: Pharmacokinetic behavior in mice (plasma concentration by LC-MS/MS). In kind it is in vivo. As to conditions: male ICR mice; for Vd: read-out: Vss. As to the method:
Three healthy ICR mice (SPF grade, from Beijing Vital River Laboratory Animal Technology Co., Ltd.), male, weighing 18-25 g, were intravenously injected with a compound (1 mg/kg) at a volume of 5 mL/kg. The compound was prepared using 5% DMSO+10% Solutol+85% Saline (w/v), and the animals were not fasted before the experiment.
Three healthy ICR mice (SPF grade, from Beijing Vital River Laboratory Animal Technology Co., Ltd.), male, weighing 18-25 g, were intragastrically administered a compound (5 mg/kg) at a volume of 10 mL/kg. The compound was prepared using 5% DMSO+10% Solutol+85% Saline (w/v), and the animals were not fasted before the experiment.
Blood samples (about 0.05 mL each) were collected from the cheeks at 5 min, 15 min, 30 min, 1 h, 2 h, 4 h, 6 h, 8 h, and 24 h after intravenous administration, and at 5 min, 15 min, 30 min, 1 h, 2 h, 4 h, 6 h, 8 h, and 24 h after intragastrical administration, and anticoagulated with heparin sodium. Following collection, the blood samples were placed on ice and the plasma was centrifuged within 1 h (centrifugation conditions: 6,000 g, 3 min, 2 °C to 8°C). The concentration of the compounds in the plasma was determined by liquid chromatography tandem mass spectrometry. The plasma samples were stored in a -80°C freezer before analysis. With plasma concentration data at different time points, pharmacokinetic parameters were calculated by Phoenix WinNonlin8.2.0, and the results are shown in Table 4: Table 4

The target in data set [3] is T1, IRAK4-HiBiT fusion protein (Homo sapiens, UniProt Q9NWZ3).
T1 construct: K562 from ATCC
T1 sequence (Q9NWZ3 1-460): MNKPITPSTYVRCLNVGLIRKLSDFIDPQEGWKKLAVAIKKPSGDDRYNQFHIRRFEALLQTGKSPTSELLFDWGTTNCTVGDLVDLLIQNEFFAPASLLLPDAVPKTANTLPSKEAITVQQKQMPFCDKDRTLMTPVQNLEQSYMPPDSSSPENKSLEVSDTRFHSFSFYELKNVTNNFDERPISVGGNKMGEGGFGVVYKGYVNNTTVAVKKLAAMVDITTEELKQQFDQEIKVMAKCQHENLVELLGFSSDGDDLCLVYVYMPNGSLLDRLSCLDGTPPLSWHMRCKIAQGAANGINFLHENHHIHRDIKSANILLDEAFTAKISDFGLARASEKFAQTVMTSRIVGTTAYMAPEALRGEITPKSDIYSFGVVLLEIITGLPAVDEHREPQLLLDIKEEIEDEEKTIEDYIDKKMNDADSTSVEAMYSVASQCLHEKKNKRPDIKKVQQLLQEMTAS
Put plainly: Detection of HiBiT-IRAK4 proteolysis levels in K562 IRAK4-HiBiT cells (Nano-Glo HiBiT Lytic assay). The class given is cell-based. As for the experimental part: Test Example 1 Detection of HiBiT-IRAK4 proteolysis levels in K562 IRAK4-HiBiT cells co-incubated with compounds of the present application • Reagents, devices, and consumables in experiments: • Nano-Glo Lytic Detection Assay, purchased from Promega; • EnVision, purchased from PerkinElmer; • Name of cell line: K562 IRAK4-HiBiT stable transformation cell strain (capable of stably expressing IRAK4-HiBiT fusion protein), constructed by Shanghai Bioduro Biologics Co., Ltd., where a K562 cell strain was purchased from ATCC. The culture medium is IMDM+10% FBS+1% P/S (volume percentage, where FBS is fetal bovine serum and P/S is Penicillin-Streptomycin, a 1:1 mixture of penicillin and streptomycin antibiotic solution (10,000 units/mL)).
Cell culture: K562 IRAK4-HiBiT cells were incubated at 37°C, and passaged every 2-3 d, with a seeding density of 200,000 cells/mL.
IRAK4-HiBiT proteolysis experiment: • Step 1: Cell seeding and treatment of compound • 1. A 10 mM compound mother liquor was prepared using DMSO, and a compound solution with a working concentration of 1,000 times (the highest working concentration is 10 µM, diluted 3.162 times, with a total of 10 concentration gradients) was prepared using Bravo automatic liquid processing platform. • 2. 40 nL of a compound working solution was transferred to a 384 well plate, and an equal volume of DMSO was added to positive control wells. • 3. 20 µL of a culture solution was added per well and shaken for 10 min. • 4.20 µL of a K562 IRAK4-HiBiT cell suspension was added per well (6,000 cells/well), and an equal volume of culture medium was added to negative control wells. • 5. The well plate was rotated at 1,000 rpm for 1 min. • 6. The cells were incubated in a 5% CO2 incubator at 37°C for 2 h or 6 h. • Step 2: HiBiT Lytic experiment • 1. The well plate was placed at room temperature to equilibrate for 30 min. • 2. 20 µL of Nano-Glo HiBiT Lytic reagent (trade name: Nano-Glo® HiBiT Lytic Detection Reagent) and the well plate was kept in the dark. • 3. The well plate was placed on an orbital shaker at 300 rpm for 5 min. • 4. The cells were incubated at room temperature for 10 min. • 5. The luminous value was read by Envision. • 6. Data was calculated and processed. Degradation degree%=(negative control - experimental well)/(negative control - positive control) * 100%. Using XL-fit software, a degradation curve was obtained by fitting using a 4 Parameter Logistic Model, and the values of Relative DC50 (nM) and Absolute DC50 (nM) were obtained.

[4] abbreviates: mouse, plasma, po, Intragastric administration (5 mg/kg).
Where [5] appears, read: mouse, plasma, po, Intragastric administration (5 mg/kg), read-out: Cmax.
Setting [6] is: mouse, plasma, Intravenous injection (1 mg/kg).
Where [7] appears, read: mouse, plasma, Intravenous injection (1 mg/kg), read-out: Cmax.
[8] abbreviates: 2 h incubation, read-out: Absolute DC50.
Where [9] appears, read: 2 h incubation, read-out: Relative DC50.
Setting [10] is: Intragastric administration (5 mg/kg).
Where [11] appears, read: Intravenous injection (1 mg/kg).
The mark [12] stands for this setting: 6 h incubation, read-out: Absolute DC50.
[13] abbreviates: 6 h incubation, read-out: Relative DC50.

In general, IC50 refers to the midpoint of a concentration-inhibition curve. A lower IC50 goes with greater potency. The term AUC(0-t) denotes exposure summed from dosing to a finite time, without extrapolation to infinity. One may read the bioavailability as dose-corrected exposure relative to a reference, in per cent. A lower bioavailability goes with poor availability. In general, half-life refers to the time in which the quantity being followed falls by half. Low values mean rapid decline, high ones slow decline. What is called Cmax is the maximum level reached in the sampled fluid or tissue. By clearance is commonly meant the volume of plasma or blood freed of the substance per unit of time. Higher therefore signals a high capacity for elimination. As usually defined, the Vss is a proportionality between amount in the body and measured concentration, not a real space. A lower Vss goes with little distribution into tissue.

Consider `CC(C)(O)c1cc2nn([C@H]3CC[C@H](CCN4CCN5c6c(F)cc(C7CCC(=O)NC7=O)cc6OCC5C4)CC3)cc2cc1NC(=O)c1cccc(C(F)(F)F)n1` (stereo partly drawn) [Compound 4], for which half-maximal inhibition in data set [1] (IC50) required 4.08 nM. In data set [2] (setting [4]), this molecule had an AUC(0-t) of 34200 ng·h/mL, a bioavailability of 60.1% and a half-life of 14.8 h. In data set [2] (setting [5]), the peak concentration (Cmax) stood at 2130 ng/mL. In data set [2] (setting [6]), the AUC(0-t) was 10500 ng·h/mL, the clearance came to 1.27 mL/min/kg and the Vd amounted to 1.07 L/kg. In addition, in data set [2] (setting [7]), the Cmax was determined as 1320 ng/mL. The molecule further displayed a Dmax in data set [3] (2 h incubation) of 90%. Also, the DC50 in data set [3] (setting [8]) came to 9.85 nM. Also, the DC50 in data set [3] (setting [9]) was found to be 8.71 nM.
For the molecule `COc1cc2nn([C@H]3CC[C@H](CCN4CCC5(CC4)OCc4cc(C6CCC(=O)NC6=O)ccc45)CC3)cc2cc1NC(=O)c1cccc(C(F)(F)F)n1` (stereo partly drawn) [Compound 46], 13.7 nM corresponded to half-maximal inhibition in data set [1] (IC50). Moreover, in data set [2] (setting [10]), the AUClast was determined as 3815 ng·h/mL, the Cmax amounted to 207 ng/mL, the F% was determined as 68.7% and the T1/2 is 27.3 h. In data set [2] (setting [11]), this molecule came in with an AUClast of 932 ng·h/mL, a CL of 6.80 mL/min/kg, a Cmax of 128 ng/mL and a Vss of 21.4 L/kg. Also, the Dmax in data set [3] (6 h incubation) is 93.6%. The DC50 in data set [3] (setting [12]) was found to be 0.92 nM. In addition, the DC50 in data set [3] (setting [13]) was determined as 0.79 nM.
With `CC(C)(O)c1cc2nn([C@H]3CC[C@H](CCN4CCC5(CC4)OC(=O)c4cc(C6CCC(=O)NC6=O)ccc45)CC3)cc2cc1NC(=O)c1cccc(C(F)(F)F)n1` (stereo partly drawn) [Compound 93], the IC50 in data set [1] turned out to be 0.18 nM. In data set [2] (setting [4]), this molecule had an AUC(0-t) of 9150 ng·h/mL, a bioavailability of 29.5% and a half-life of 4.19 h. In data set [2] (setting [5]), the Cmax stood at 844 ng/mL. Further, in data set [2] (setting [6]), the AUC(0-t) stood at 6210 ng·h/mL, the clearance turned out to be 2.98 mL/min/kg and the Vd came out at 0.958 L/kg. The Cmax in data set [2] (setting [7]) came to 783 ng/mL. Further, the Dmax in data set [3] (2 h incubation) amounted to 94%. In addition, the DC50 in data set [3] (setting [8]) turned out to be 0.74 nM. For the same molecule, in data set [3] (setting [9]), the DC50 amounted to 0.93 nM.
As for `COc1cc2nn([C@H]3CC[C@H](CCN4CCC5(CC4)OCc4cc(C6CCC(=O)NC6=O)ccc45)CC3)cc2cc1C(=O)Nc1cccc(C(F)(F)F)n1` (stereo partly drawn) [Compound 96], half-maximal inhibition in data set [1] (IC50) was put at 0.23 nM. In data set [2] (setting [4]), this molecule had an AUC(0-t) of 3640 ng·h/mL, a bioavailability of 35.4% and a half-life of 14.7 h. Further, in data set [2] (setting [5]), the Cmax was 239 ng/mL. In data set [2] (setting [6]), the AUC(0-t) was 2060 ng·h/mL, the clearance stood at 4.59 mL/min/kg and the Vd amounted to 7.97 L/kg. Moreover, the maximum concentration (Cmax) in data set [2] (setting [7]) was 243 ng/mL. The Dmax in data set [3] (6 h incubation) turned out to be 97%. The DC50 in data set [3] (setting [12]) worked out at 0.48 nM. Also, the DC50 in data set [3] (setting [13]) worked out at 0.44 nM.
